How the values were obtained:
Assay in all cases: NanoBRET K192
Format in all cases: cell-based
[1] = molecular target: T1, IKBKE (Homo sapiens, UniProt Q14164); conditions: HEK293
T1 construct: purchased Promega (NanoBRET Target Engagement K192 Kinase Selectivity System)
Method in brief: (§1)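 HEK293 cells were transfected overnight with NanoLuc–kinase fusion vectors, then treated for 2 h at 37 °C with compound (added as 100 μM working solution) plus K10 tracer. BRET was read at 450/610 nm after substrate and extracellular inhibitor, and fractional occupancy was calculated against no-compound controls.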

[2] = molecular target: T2, EPHA4 (Homo sapiens, UniProt P54764); conditions: HEK293
T2 construct: purchased Promega (NanoBRET Target Engagement K192 Kinase Selectivity System)
Method in brief: as §1

[3] = molecular target: T3, STK3 (Homo sapiens, UniProt Q13188); conditions: HEK293
T3 construct: purchased Promega (NanoBRET Target Engagement K192 Kinase Selectivity System)
Method in brief: as §1

[4] = molecular target: T4, TIE1 (Homo sapiens, UniProt P35590); conditions: HEK293
T4 construct: purchased Promega (NanoBRET Target Engagement K192 Kinase Selectivity System)
Method in brief: as §1

[5] = molecular target: T5, FGFR2 (Homo sapiens, UniProt P21802); conditions: HEK293
T5 construct: host or cells: HEK293
Method in brief: as §1

[6] = molecular target: T6, MAP4K2 (Homo sapiens, UniProt Q12851); conditions: HEK293
T6 construct: purchased Promega (NanoBRET Target Engagement K192 Kinase Selectivity System)
T6 sequence (Q12851 whole entry): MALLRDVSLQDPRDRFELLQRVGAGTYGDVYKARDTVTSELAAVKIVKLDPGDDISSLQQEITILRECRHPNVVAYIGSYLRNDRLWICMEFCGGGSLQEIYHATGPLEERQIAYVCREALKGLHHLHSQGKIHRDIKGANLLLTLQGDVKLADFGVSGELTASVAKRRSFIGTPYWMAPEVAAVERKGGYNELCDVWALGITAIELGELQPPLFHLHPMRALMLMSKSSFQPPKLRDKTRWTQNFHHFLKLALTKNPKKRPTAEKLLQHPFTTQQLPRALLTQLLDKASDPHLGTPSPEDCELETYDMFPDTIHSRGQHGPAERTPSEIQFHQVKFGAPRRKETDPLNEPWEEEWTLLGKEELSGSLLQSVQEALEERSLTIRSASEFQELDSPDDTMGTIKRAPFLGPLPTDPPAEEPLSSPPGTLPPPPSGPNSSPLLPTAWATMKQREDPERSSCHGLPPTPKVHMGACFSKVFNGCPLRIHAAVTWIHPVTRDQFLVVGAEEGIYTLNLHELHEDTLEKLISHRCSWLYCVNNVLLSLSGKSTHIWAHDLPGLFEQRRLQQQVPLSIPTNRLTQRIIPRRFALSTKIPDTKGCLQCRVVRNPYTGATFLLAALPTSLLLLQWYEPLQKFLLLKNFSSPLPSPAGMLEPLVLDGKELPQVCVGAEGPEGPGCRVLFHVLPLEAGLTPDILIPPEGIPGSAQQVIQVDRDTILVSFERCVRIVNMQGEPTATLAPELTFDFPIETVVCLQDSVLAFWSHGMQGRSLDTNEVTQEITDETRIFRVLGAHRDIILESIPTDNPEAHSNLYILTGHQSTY
Method in brief: as §1

[7] = molecular target: T7, TNNI3K (Homo sapiens, UniProt Q59H18); conditions: HEK293
T7 construct: purchased Promega (NanoBRET Target Engagement K192 Kinase Selectivity System)
Method in brief: as §1

[8] = molecular target: T8, CAMK1 (Homo sapiens, UniProt Q14012); conditions: HEK293
T8 construct: purchased Promega (NanoBRET Target Engagement K192 Kinase Selectivity System)
T8 sequence (Q14012 whole entry): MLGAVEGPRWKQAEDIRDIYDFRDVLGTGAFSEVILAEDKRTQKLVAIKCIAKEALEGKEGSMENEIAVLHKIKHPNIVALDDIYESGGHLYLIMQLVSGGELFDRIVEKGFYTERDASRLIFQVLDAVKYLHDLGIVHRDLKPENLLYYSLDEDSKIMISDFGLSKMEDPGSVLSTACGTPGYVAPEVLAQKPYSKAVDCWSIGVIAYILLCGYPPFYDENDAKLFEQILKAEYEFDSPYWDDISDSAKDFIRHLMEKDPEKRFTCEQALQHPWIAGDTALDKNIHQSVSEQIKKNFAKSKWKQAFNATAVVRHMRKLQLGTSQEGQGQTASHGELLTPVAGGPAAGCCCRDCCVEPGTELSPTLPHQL
Method in brief: as §1

[9] = molecular target: T9, AKT2 (Homo sapiens, UniProt P31751); conditions: HEK293
T9 construct: purchased Promega (NanoBRET Target Engagement K192 Kinase Selectivity System)
Method in brief: as §1

[10] = molecular target: T10, STK33 (Homo sapiens, UniProt Q9BYT3); conditions: HEK293
T10 construct: purchased Promega (NanoBRET Target Engagement K192 Kinase Selectivity System)
T10 sequence (Q9BYT3 whole entry): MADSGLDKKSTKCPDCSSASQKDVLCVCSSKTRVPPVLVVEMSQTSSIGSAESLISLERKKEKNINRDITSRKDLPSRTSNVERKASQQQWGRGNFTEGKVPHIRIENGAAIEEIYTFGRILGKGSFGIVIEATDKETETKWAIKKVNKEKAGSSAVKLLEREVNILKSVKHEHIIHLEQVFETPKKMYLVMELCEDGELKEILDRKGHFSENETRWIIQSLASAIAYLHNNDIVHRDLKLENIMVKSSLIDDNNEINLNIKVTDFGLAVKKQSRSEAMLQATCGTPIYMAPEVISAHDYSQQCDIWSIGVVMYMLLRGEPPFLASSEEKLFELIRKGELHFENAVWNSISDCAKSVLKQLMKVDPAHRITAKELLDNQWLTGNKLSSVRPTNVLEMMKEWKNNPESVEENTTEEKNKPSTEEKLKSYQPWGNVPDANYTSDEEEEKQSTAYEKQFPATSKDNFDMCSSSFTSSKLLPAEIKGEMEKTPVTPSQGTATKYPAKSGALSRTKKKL
Method in brief: as §1

[11] = molecular target: T11, DAPK2 (Homo sapiens, UniProt Q9UIK4)
T11 construct: expressed in transfected cells; host or cells: HEK293
T11 sequence (Q9UIK4 whole entry): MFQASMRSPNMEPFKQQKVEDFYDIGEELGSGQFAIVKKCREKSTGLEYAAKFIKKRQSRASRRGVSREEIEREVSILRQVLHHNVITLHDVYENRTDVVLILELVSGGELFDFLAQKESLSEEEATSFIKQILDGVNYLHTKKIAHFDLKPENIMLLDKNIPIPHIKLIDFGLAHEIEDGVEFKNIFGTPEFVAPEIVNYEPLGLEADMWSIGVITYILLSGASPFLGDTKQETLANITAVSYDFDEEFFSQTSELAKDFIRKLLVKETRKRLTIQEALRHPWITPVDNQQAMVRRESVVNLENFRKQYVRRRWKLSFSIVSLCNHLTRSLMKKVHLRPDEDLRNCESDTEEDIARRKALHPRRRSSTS
Method in brief: as §1

[12] = molecular target: T12, PRKX (Homo sapiens, UniProt P51817); conditions: HEK293
T12 construct: purchased Promega (NanoBRET Target Engagement K192 Kinase Selectivity System)
Method in brief: as §1

[13] = molecular target: T13, BRAF(V600E) (Homo sapiens, UniProt P15056, V600E); conditions: HEK293
T13 construct: purchased Promega (NanoBRET Target Engagement K192 Kinase Selectivity System)
T13 sequence (P15056 whole entry V600E): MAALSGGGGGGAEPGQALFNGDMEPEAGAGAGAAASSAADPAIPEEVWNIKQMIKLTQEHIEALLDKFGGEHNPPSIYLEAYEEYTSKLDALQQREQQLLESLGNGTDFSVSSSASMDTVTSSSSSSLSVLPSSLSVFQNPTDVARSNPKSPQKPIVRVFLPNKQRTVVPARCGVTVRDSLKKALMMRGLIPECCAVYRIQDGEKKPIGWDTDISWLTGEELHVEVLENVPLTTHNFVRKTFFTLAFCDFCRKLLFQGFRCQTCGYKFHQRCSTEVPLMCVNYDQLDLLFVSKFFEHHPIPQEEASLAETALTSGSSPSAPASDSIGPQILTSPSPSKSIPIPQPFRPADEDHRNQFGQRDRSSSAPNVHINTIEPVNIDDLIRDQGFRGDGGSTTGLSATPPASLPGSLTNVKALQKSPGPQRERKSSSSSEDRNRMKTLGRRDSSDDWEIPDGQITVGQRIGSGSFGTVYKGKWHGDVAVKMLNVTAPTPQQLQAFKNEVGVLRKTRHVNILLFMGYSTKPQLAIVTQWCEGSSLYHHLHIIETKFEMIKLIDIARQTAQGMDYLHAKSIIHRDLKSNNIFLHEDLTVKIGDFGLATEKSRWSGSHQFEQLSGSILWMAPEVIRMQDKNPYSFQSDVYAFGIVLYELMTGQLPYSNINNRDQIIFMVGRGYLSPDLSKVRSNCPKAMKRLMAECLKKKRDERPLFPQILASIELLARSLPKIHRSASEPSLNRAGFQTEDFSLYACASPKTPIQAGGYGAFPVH
Method in brief: as §1

[14] = molecular target: T14, RPS6KA2 (Homo sapiens, UniProt Q15349); conditions: HEK293
T14 construct: purchased Promega (NanoBRET Target Engagement K192 Kinase Selectivity System)
Method in brief: as §1

[15] = molecular target: T15, CDKL2 (Homo sapiens, UniProt Q92772); conditions: HEK293
T15 construct: purchased Promega (NanoBRET Target Engagement K192 Kinase Selectivity System)
Method in brief: as §1

[16] = molecular target: T16, ERN2 (Homo sapiens, UniProt Q76MJ5); conditions: HEK293
T16 construct: purchased Promega (NanoBRET Target Engagement K192 Kinase Selectivity System)
T16 sequence (Q76MJ5 35-926): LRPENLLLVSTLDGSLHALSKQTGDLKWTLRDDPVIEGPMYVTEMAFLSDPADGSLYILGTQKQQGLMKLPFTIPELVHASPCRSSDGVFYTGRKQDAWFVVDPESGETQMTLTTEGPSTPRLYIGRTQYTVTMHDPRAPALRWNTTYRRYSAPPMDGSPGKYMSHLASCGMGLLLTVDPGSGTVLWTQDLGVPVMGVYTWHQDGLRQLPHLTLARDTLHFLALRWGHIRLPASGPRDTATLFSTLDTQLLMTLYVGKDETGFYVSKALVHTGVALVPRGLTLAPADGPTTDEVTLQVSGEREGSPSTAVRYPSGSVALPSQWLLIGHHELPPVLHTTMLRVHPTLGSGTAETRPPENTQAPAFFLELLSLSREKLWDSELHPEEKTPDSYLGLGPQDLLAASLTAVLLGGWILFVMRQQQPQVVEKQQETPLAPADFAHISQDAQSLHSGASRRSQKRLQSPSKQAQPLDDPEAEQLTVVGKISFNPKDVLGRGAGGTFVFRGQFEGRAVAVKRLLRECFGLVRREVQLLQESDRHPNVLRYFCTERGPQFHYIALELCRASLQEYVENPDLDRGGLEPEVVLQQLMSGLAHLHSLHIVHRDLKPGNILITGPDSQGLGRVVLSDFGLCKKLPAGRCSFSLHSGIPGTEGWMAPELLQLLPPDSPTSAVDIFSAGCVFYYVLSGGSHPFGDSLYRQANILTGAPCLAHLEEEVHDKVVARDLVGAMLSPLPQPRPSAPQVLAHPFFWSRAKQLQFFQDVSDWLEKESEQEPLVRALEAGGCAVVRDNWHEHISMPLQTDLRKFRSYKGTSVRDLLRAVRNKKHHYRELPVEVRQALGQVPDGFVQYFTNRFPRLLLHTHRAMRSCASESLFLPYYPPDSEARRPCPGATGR
Method in brief: as §1

[17] = molecular target: T17, PRKAA2 (Homo sapiens, UniProt P54646); conditions: HEK293
T17 construct: purchased Promega (NanoBRET Target Engagement K192 Kinase Selectivity System)
Method in brief: as §1

[18] = molecular target: T18, CDK15 + Y (Homo sapiens, UniProt Q96Q40); conditions: HEK293
T18 construct: purchased Promega (NanoBRET Target Engagement K192 Kinase Selectivity System)
Method in brief: as §1

[19] = molecular target: T19, CDK2 + E1 (Homo sapiens, UniProt P24941); conditions: HEK293
T19 construct: purchased Promega (NanoBRET Target Engagement K192 Kinase Selectivity System)
Method in brief: as §1

[20] = molecular target: T20, BMP2K (Homo sapiens, UniProt Q9NSY1); conditions: HEK293
T20 construct: purchased Promega (NanoBRET Target Engagement K192 Kinase Selectivity System)
Method in brief: as §1

[21] = molecular target: T21, RIOK2 (Homo sapiens, UniProt Q9BVS4); conditions: HEK293
T21 construct: purchased Promega (NanoBRET Target Engagement K192 Kinase Selectivity System)
Method in brief: as §1

[22] = molecular target: T22, RPS6KA4 (Homo sapiens, UniProt O75676); conditions: HEK293
T22 construct: purchased Promega (NanoBRET Target Engagement K192 Kinase Selectivity System)
Method in brief: as §1

[23] = molecular target: T23, NEK9 (Homo sapiens, UniProt Q8TD19); conditions: HEK293
T23 construct: purchased Promega (NanoBRET Target Engagement K192 Kinase Selectivity System)
Method in brief: as §1

[24] = molecular target: T24, EPHA6 (Homo sapiens, UniProt Q9UF33); conditions: HEK293
T24 construct: purchased Promega (NanoBRET Target Engagement K192 Kinase Selectivity System)
Method in brief: as §1

[25] = molecular target: T25, JNK3 (Homo sapiens, UniProt P53779); conditions: HEK293
T25 construct: purchased Promega (NanoBRET Target Engagement K192 Kinase Selectivity System)
T25 sequence (P53779 whole entry): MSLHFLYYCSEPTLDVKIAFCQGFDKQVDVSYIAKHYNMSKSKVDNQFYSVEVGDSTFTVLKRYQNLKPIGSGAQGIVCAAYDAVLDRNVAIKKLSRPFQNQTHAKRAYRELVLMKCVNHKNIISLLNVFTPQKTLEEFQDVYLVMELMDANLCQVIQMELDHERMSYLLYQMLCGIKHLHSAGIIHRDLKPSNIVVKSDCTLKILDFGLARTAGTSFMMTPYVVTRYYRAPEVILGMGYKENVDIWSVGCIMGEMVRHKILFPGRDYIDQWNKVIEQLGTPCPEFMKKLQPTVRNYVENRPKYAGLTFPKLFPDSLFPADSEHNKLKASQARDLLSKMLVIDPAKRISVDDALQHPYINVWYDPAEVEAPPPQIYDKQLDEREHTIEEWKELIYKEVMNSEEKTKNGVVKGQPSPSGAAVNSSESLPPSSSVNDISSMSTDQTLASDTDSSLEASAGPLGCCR
Method in brief: as §1

[26] = molecular target: T26, LATS2 (Homo sapiens, UniProt Q9NRM7); conditions: HEK293
T26 construct: purchased Promega (NanoBRET Target Engagement K192 Kinase Selectivity System)
Method in brief: as §1

[27] = molecular target: T27, STK16 (Homo sapiens, UniProt O75716); conditions: HEK293
T27 construct: purchased Promega (NanoBRET Target Engagement K192 Kinase Selectivity System)
Method in brief: as §1

T1 sequence (Q14164 whole entry): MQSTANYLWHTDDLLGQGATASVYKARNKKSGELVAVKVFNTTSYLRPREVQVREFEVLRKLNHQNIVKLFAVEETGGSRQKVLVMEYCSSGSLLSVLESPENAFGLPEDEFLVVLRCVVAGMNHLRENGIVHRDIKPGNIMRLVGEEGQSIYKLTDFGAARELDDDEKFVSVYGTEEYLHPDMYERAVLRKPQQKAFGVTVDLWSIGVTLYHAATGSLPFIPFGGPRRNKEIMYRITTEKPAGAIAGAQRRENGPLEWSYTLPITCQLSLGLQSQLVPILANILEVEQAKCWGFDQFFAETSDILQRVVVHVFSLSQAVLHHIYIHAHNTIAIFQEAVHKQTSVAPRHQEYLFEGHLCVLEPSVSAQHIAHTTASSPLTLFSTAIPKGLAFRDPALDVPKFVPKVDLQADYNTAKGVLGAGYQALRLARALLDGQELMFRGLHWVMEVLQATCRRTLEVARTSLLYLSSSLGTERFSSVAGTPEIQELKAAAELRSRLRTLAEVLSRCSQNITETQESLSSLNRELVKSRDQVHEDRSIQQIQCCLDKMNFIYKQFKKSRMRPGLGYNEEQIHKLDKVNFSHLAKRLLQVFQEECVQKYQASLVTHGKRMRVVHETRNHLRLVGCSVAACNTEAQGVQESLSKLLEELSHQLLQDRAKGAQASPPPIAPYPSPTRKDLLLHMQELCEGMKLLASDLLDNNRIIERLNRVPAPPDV

For `CCC(=O)Nc1cc(Nc2cc(NC3CC3)n3ncc(C#N)c3n2)c(F)cc1N1CCC[C@H](NC)C1` [Compound 2, (S)-N-(5-((3-cyano-7-(cyclopropylamino)pyrazolo[1,5-a]pyrimidin-5-yl)amino)-4-fluoro-2-(3-(methylamino)piperidin-1-yl)phenyl)propionamide], the receptor occupancy at 10 µM [1] was 23.4%, the receptor occupancy at 10 µM [2] was 7.8% and the receptor occupancy at 10 µM [3] was 5.2%. For the same compound, the receptor occupancy at 10 µM [4] was 20.6%, the receptor occupancy at 10 µM [5] was -2.9% and the receptor occupancy at 10 µM [6] was 31.4%. The receptor occupancy at 10 µM [7] was 8%, the receptor occupancy at 10 µM [8] was 26.2% and the receptor occupancy at 10 µM [9] was 5.3%. The receptor occupancy at 10 µM [10] was 26%, the “% occupancy at 10 μM” value ([11]; DAPK2, HEK293) was 72% and the receptor occupancy at 10 µM ([11]; HEK293, DAPK2) was 72.1%. For the same compound, the receptor occupancy at 10 µM [12] was 10.6%, the receptor occupancy at 10 µM [13] was 5.3% and the receptor occupancy at 10 µM [14] was 2.4%. For the same compound, the receptor occupancy at 10 µM [15] was 13.6%, the receptor occupancy at 10 µM [16] was 9.2% and the receptor occupancy at 10 µM [17] was 0.5%. The receptor occupancy at 10 µM [18] was 26.5%, the receptor occupancy at 10 µM [19] was 15.9% and the receptor occupancy at 10 µM [20] was 7.6%. The receptor occupancy at 10 µM [21] was -1.8%, the receptor occupancy at 10 µM [22] was 6.4% and the receptor occupancy at 10 µM [23] was 1%. The receptor occupancy at 10 µM [24] was 7.3%, the receptor occupancy at 10 µM [25] was 1% and the receptor occupancy at 10 µM [26] was 9.4%. For the same compound, the receptor occupancy at 10 µM [27] was 16.4%.
